Measured values taken from PMC8021118, “Shared recognition of citrullinated tenascin-C peptides by T and B cells in rheumatoid arthritis” (JCI Insight, 2021).
Where “and” joins values, the source holds several entries; their conditions need not be identical. Equal values may be shown once. Where a SMILES comes first, the peptide text is derived from it. Where no end group is shown, it is not given here. [ ]: non-standard residue; d: D form. Cit = NC(=O)NCCC[C@H](N)C(=O)O

Experiments:
[1] = tested on: CD4+ memory T cells in peripheral blood; assay: Ex vivo detection of peptide-specific memory CD4+ T cells by multiplex HLA class II tetramer staining; assay type: cell-based, human; settings: for Frequencies of peptide-specific memory CD4+ T cells: mean ± SEM, SEM
[2] = tested on: CD4+ T cells in PBMC from HLA-DRB1*04:01+ subjects; assay: In vitro expansion of peptide-specific CD4+ T cells from PBMC and HLA class II tetramer staining; assay type: cell-based, human; settings: for Responders (% in RA): RA subjects with positive in vitro response (>0.1% of CD4+ T cells tetramer+) of total tested, 10 μg/mL peptide, 14 days, n = 14, TNC44 and TNC59 n = 6; for Immunogenicity: Supplemental Table 1, ability to elicit an immune response in vitro (tetramer staining after expansion)
Text: TNC is a large protein (2110 amino acids in length) composed of an N-terminal assembly domain, 14.5 epidermal growth factor–like repeats (EGF-L), 8 constant fibronectin type III–like repeats (FNIII), and an additional 9 alternatively spliced FNIII elements, and a C-terminal fibrinogen-like globe (FBG) ([16]). Using a previously described algorithm ([9], [24]), we scanned the entire length of the TNC monomer and identified 64 arg-containing peptides with motifs that would predict to permit binding to HLA-DRB1*04:01 in either their noncitrullinated native form, citrullinated form, or both. Based on these predictions, we synthesized the citrullinated versions of these peptides and tested their ability to bind HLA-DRB1*04:01 and to elicit CD4^+ T cell expansion in vitro. Of the peptides synthesized, 8 cit-TNC peptides bound to HLA-DRB1*04:01 with moderate to high affinity (Table 1). Among these, cit-TNC17, cit-TNC22, cit-TNC45, cit-TNC50, and cit-TNC56 were determined to be the most immunogenic, based on their ability to drive epitope-specific T cell expansion, as measured by HLA class II tetramer (Tmr) staining of peripheral blood mononuclear cells (PBMC) from HLA-DRB1*04:01^+ subjects following 2 weeks of in vitro expansion (Table 1 and Supplemental Figure 1; supplemental material available online with this article; https://doi.org/10.1172/jci.insight.145217DS1).
Recombinant HLA-DRB1*04:01 protein was produced by the BRI Tetramer Core as previously described ([56]). Soluble HLA-DRB1*04:01 monomer was purified from insect cell culture supernatants and biotinylated at a sequence-specific site using biotin ligase (Avidity) prior to dialysis into phosphate storage buffer. The biotinylated monomer was loaded with 0.2 mg/mL of peptide by incubating at 37°C for 72 hours in the presence of 2.5 mg/mL n-octyl β-D-glucopyranoside and 1 mM Pefabloc SC (Sigma-Aldrich). Peptide-loaded monomers were conjugated into Tmrs using fluorescently labeled streptavidin (Invitrogen) for 6–18 hours at room temperature at a molar ratio of 8:1.
Cryopreserved PBMCs from RA and healthy subjects were cultured at 5 × 10^6 cells/well in a 48-well plate in RPMI-1640 + 10% HPS with 10 μg/mL of peptide. IL-2 (Novartis) was added at 325 IU/mL on day 6. On day 14, cells were stained for expression of Tmr-PE, CD25 APC (BD Biosciences), and CD4 FITC (BioLegend) (Supplemental Table 8) and then run on a FACSCanto. The data were analyzed by FlowJo software version 10.

HLA-DRB1*04:01 = HLA-DRB1*04:01 (Homo sapiens, UniProt P01903+P01911, A100K/A169T/F76Y/I96L/K127E/L162R/M171V/N62H/P40V/Q125Y/R42H/S133A/S149N/S66Y/V115G/V209L/W38E); assay: Peptide competition binding assay to HLA-DRB1*04:01
[3] = tested on: serum IgG antibodies of RA subjects; assay: ELISA for serum antibodies against peptide; assay type: binding, human; settings: Cys-flanked ELISA peptides
Experimental: (§1) ELISAs were used to detect antibodies against citrullinated peptides in sera from patients in Autoantibody Cohorts 1 and 2 (Supplemental Table 2). Peptides used in the assay were synthesized by either GenScript or Pepceutical and are described in Supplemental Table 5. The ELISAs were conducted as previously described ([18], [26]). In brief, 96-well Nunc Maxisorp plates were coated with 10 μg/mL peptide in PBS, blocked with 2% BSA, and incubated with sera diluted 1:100. Bound antibodies were detected with an HRP-conjugated anti–human IgG Fc monoclonal antibody (6043HRP, Stratech). A standard curve of positive sera was used to calculate relative antibody titers in arbitrary units (AU) for each sample. The CCP2 ELISA for Autoantibody Cohort 1 was performed as by the manufacturer’s instruction (FCCP600, Axis-Shield). Cross-reactivity to cit-TNC56, cit-TNC17, or cit-TNC5 was analyzed in human sera reactive to cit-TNC56 or cit-TNC17. Sera were diluted 1:100, incubated with 1, 10, and 100 μg/mL of peptides for 2 hours and centrifuged at 10,000g for 10 minutes at room temperature, and the supernatant was added to peptide-coated plates for analysis by ELISA as described above. Positivity was defined by the cut-off of the 98th percentile of HC samples from Autoantibody Cohort 1.

[4] = tested on: Synovial fluid mononuclear cells (SFMC) from HLA-DRB1*04:01 RA patients; assay: FluoroSpot cytokine secretion by synovial fluid mononuclear cells stimulated with peptide; assay type: cell-based, human; settings: for IFN-γ secretion by SFMC (in words): 20 μg/mL peptide, 48 hours, 3-color FluoroSpot, RA n = 7, 15-mer T cell peptides; for IL-10 production by SFMC (in words) / IL-17 production by SFMC (in words): peptide stimulation 48 hours, three-color fluorospot, RA n=7
[5] = tested on: anti-cit-TNC antibodies in double-reactive RA sera; assay: Cross-reactivity (peptide absorption/inhibition) ELISA; assay type: binding, human; settings: for Absorption by the homologous peptide (in words): sera double-reactive for cit-TNC17 and cit-TNC56
Experimental: Sera that were double-reactive with peptides cit-TNC17 or cit-TNC56 and cit-TNC56, cit-TNC17, or cit-TNC5 were diluted 1:100, incubated with 1, 10, and 100 μg/mL of peptides for 2 hours and centrifuged at 10,000g for 10 minutes, and the supernatant then added to peptide-coated plates for analysis by ELISA. […] (B) Limited cross-reactivity between anti–cit-TNC56 and both anti–cit-TNC17 and anti–cit-TNC5. Each panel was run on a separate plate.
as §1

[6] = Autoantibody Cohort 1: HLA-DRB1*04:01, CCP+ RA sera (n = 17), diluted 1:100, cut-off 98th percentile of HC
[7] = Autoantibody Cohort 2, CCP+ RA (n = 55)
[8] = Autoantibody Cohort 2, CCP– RA (n = 43)

Compound | Percentages of subjects with a detectable ex vivo response ([1]; Healthy control subjects (n=7)) | Frequencies of peptide-specific memory CD4+ T cells ([1]; Healthy control subjects (n=7)) | Percentages of subjects with a detectable ex vivo response ([1]; RA subjects (n=9)) | Frequencies of peptide-specific memory CD4+ T cells ([1]; RA subjects (n=9)) | Responders (% in RA) [2] | Immunogenicity [2] | EC50 (HLA-DRB1*04:01) | Percentage of subjects seropositive for antibodies to peptide [3, 6] | IFN-γ secretion by SFMC (in words) [4] | further results
CC(C)C[C@H](NC(=O)[C@H](CCCNC(N)=O)NC(=O)[C@H](Cc1ccc(O)cc1)NC(=O)[C@H](CCCNC(N)=O)NC(=O)[C@H](CC(=O)O)NC(=O)[C@@H](N)Cc1ccccc1)C(=O)N[C@@H](CC(N)=O)C(=O)N[C@@H](Cc1ccc(O)cc1)C(=O)N[C@@H](CO)C(=O)N[C@@H](CC(C)C)C(=O)N1CCC[C@H]1C(=O)N[C@H](C(=O)NCC(=O)N[C@@H](CCC(N)=O)C(=O)N[C@@H](Cc1c[nH]c2ccccc12)C(=O)O)[C@@H](C)O [TNC22] (H-FD[Cit]Y[Cit]LNYSLPTGQW-OH) | 71% | 3.0±1.2 /million memory CD4+ T cells | 56% | 3.8±1.9 /million memory CD4+ T cells | 46% | Yes | 700 nM |  |  | 
CC(C)C[C@H](NC(=O)[C@H](CCCNC(N)=O)NC(=O)[C@H](Cc1ccccc1)NC(=O)CNC(=O)[C@H](CC(=O)O)NC(=O)[C@@H]1CCCN1)C(=O)N[C@@H](CO)C(=O)N[C@@H](Cc1c[nH]c2ccccc12)C(=O)N[C@H](C(=O)N[C@@H](C)C(=O)N[C@@H](CC(=O)O)C(=O)N[C@@H](CCC(=O)O)C(=O)NCC(=O)N[C@H](C(=O)N[C@@H](Cc1ccccc1)C(=O)O)C(C)C)[C@@H](C)O [TNC45] (H-PDGF[Cit]LSWTADEGVF-OH) | 71% | 2.6±1.0 /million memory CD4+ T cells | 100% | 22.6±6.4 /million memory CD4+ T cells | 50% | Yes | 17100 nM |  |  | 
CC[C@H](C)[C@H](NC(=O)[C@H](CCCNC(N)=O)NC(=O)[C@H](Cc1ccccc1)NC(=O)[C@H](CO)NC(=O)[C@H](CCC(=O)O)NC(=O)[C@@H](N)C(C)C)C(=O)N[C@H](C(=O)N[C@@H](Cc1ccc(O)cc1)C(=O)N[C@H](C(=O)N1CCC[C@H]1C(=O)N[C@H](C(=O)N[C@H](C(=O)NCC(=O)NCC(=O)N[C@H](C(=O)O)[C@@H](C)O)[C@@H](C)O)[C@@H](C)CC)C(C)C)[C@@H](C)O [TNC50] (H-VESF[Cit]ITYVPITGGT-OH) | 71% | 1.5±0.6 /million memory CD4+ T cells | 100% | 9.6±3.1 /million memory CD4+ T cells | 50% | Yes | 1000 nM |  |  | 
CEHSIQFAEMKL[Cit]PSNF[Cit]NLEG[Cit][Cit]KRC (cysteine pairing not given here) [cit-TNC5, previously published cit-TNC5 peptide, positive control in antibody ELISA, reference compound] |  |  |  |  |  |  |  | 47% |  | 
CEYEVSLIS[Cit][Cit]GDMSSNPAC [cit-TNC17, Cys-flanked citrullinated TNC17 peptide used for detection of antibodies by ELISA] |  |  |  |  |  |  |  | 100% | elicited IFN-γ secretion by SFMC | Percentage of subjects seropositive for antibodies to peptide [3, 7]: 63.6% and 64%; Percentage of subjects seropositive for antibodies to peptide [3, 8]: 2.3%; IL-10 production by SFMC (in words) [4]: produced; Cross-reactivity with cit-TNC5 (in words) ([5]; double-reactive sera): no cross-reactivity; Absorption by the homologous peptide (in words) [5]: efficient; maximum inhibition ([5]; serum 6, cit-TNC17 versus cit-TNC56, sera 1:100, 1, 10 and 100 μg/mL peptide, 2 hours): 22%
CPTAQVESF[Cit]ITYVPITGGC [cit-TNC50, Cys-flanked citrullinated TNC50 peptide used in ELISA] |  |  |  |  |  |  |  |  |  | IL-17 production by SFMC (in words) [4]: produced
CQGQYEL[Cit]VDL[Cit]DHGETAFC [cit-TNC56, Cys-flanked citrullinated TNC56 peptide used in ELISA] |  |  |  |  |  |  |  | 53% | elicited IFN-γ secretion by SFMC | Percentage of subjects seropositive for antibodies to peptide [3, 7]: 45.5%; Percentage of subjects seropositive for antibodies to peptide [3, 8]: 11.6%; IL-17 production by SFMC (in words) [4]: produced; Absorption by the homologous peptide (in words) [5]: efficient; maximum inhibition ([5]; serum 2, cit-TNC56 versus cit-TNC17, sera 1:100, 1, 10 and 100 μg/mL peptide, 2 hours): 24.8%; maximum inhibition ([5]; serum 2, cross-reactivity between cit-TNC56 and cit-TNC5): 38.7%; maximum inhibition ([5]; serum 6, citTNC56 versus cit-TNC17, sera 1:100, 1, 10 and 100 μg/mL peptide, 2 hours): 43%
CTPLAKFD[Cit]Y[Cit]LNYSLPTGC [cit-TNC22, Cys-flanked citrullinated TNC22 peptide used in ELISA] |  |  |  |  |  |  |  | 35% | elicited IFN-γ secretion by SFMC | IL-10 production by SFMC (in words) [4]: produced
CVSDATPDGF[Cit]LSWTADEGC [cit-TNC45, Cys-flanked citrullinated TNC45 peptide used in ELISA] |  |  |  |  |  |  |  | 29% | elicited IFN-γ secretion by SFMC | 
